Data set [1] deals with EGFR T790ML858R (Homo sapiens, UniProt P00533, L858R/T790M). The data set is described as follows: EGFR T790ML858R Lance assay. In kind it is biochemical. The method, then:
(§1) Inhibition is indicated as […] [nM] (“−”=not measured). Compounds having an activity designated as “A” provided an IC50≤100 nM; compounds having an activity designated as “B” provided an 100 nM<IC50≤500 nM; compounds having an activity designated as “C” provided an 500 nM<IC50≤1000 nM; compounds having an activity designated as “D” provided an 1000 nM<IC50≤100000 nM; and compounds having an activity designated as “E” provided an IC50>10000 nM.

Data set [2] concerns the target EGFR wt (Homo sapiens, UniProt P00533). In words: EGFR wt Lance assay. In kind it is biochemical. The method, then: as §1
The subject of data set [3] is A431. The data set is described as follows: A431 CellTiter-Glo. The conditions noted are these: Homo sapiens, A-431; 72 h compound incubation; read-out: A431 CTG IC50. In kind it is cell-based. The gist of the method:
(§2)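 72 h compound exposure after 24 h attachment, 37° C./5% CO2; CellTiter-Glo ATP luminescence read-out; IC50 by dose-response fit; DMSO vehicle and 10 μM Staurosporine as controls; plates accepted only if Z′ ≥0.5.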
(In ATP-based viability assays light output follows the ATP content of the culture.)

Data set [4] relates to H1975. In words: H1975 CellTiter-Glo. It counts as cell-based. The conditions noted are these: Homo sapiens, NCI-H1975; 72 h compound incubation; read-out: H1975 CTG IC50. The method, boiled down: as §2
In data set [5] the target is EGFR Exon 20 INSNPH Ba/F3 (Homo sapiens, UniProt P00533, DUP771-773, cells depend on it). In words: EGFR Exon 20 INSNPH Ba/F3 CellTiter-Glo. In kind it is cell-based. The conditions noted are these: CellTiter-Glo, 72 h, read-out: EGFR Exon 20 INSNPH Ba/F3 CTG IC50. The gist of the method:
(§3)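 Using a 72 h viability readout, compound-treated Ba/F3 cells (pre-incubated 24 h after seeding) were lysed with CellTiter-Glo reagent and luminescence recorded. Potency was expressed as IC50 from a fitted dose–response curve.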

The target in data set [6] is Her2 Exon 20 INSYVMA Ba/F3 (Homo sapiens, UniProt P04626, DUP772-775, cells depend on it). The data set is described as follows: Her2 Exon 20 INSYVMA Ba/F3 CellTiter-Glo. In kind it is cell-based. As to conditions: CellTiter-Glo, 72 h, read-out: Her2 Exon 20 INSYVMA Ba/F3 CTG IC50. The gist of the method: as §3
Sequence of Her2 Exon 20 INSYVMA Ba/F3 (P04626 with tags, fused parts or gaps DUP772-775): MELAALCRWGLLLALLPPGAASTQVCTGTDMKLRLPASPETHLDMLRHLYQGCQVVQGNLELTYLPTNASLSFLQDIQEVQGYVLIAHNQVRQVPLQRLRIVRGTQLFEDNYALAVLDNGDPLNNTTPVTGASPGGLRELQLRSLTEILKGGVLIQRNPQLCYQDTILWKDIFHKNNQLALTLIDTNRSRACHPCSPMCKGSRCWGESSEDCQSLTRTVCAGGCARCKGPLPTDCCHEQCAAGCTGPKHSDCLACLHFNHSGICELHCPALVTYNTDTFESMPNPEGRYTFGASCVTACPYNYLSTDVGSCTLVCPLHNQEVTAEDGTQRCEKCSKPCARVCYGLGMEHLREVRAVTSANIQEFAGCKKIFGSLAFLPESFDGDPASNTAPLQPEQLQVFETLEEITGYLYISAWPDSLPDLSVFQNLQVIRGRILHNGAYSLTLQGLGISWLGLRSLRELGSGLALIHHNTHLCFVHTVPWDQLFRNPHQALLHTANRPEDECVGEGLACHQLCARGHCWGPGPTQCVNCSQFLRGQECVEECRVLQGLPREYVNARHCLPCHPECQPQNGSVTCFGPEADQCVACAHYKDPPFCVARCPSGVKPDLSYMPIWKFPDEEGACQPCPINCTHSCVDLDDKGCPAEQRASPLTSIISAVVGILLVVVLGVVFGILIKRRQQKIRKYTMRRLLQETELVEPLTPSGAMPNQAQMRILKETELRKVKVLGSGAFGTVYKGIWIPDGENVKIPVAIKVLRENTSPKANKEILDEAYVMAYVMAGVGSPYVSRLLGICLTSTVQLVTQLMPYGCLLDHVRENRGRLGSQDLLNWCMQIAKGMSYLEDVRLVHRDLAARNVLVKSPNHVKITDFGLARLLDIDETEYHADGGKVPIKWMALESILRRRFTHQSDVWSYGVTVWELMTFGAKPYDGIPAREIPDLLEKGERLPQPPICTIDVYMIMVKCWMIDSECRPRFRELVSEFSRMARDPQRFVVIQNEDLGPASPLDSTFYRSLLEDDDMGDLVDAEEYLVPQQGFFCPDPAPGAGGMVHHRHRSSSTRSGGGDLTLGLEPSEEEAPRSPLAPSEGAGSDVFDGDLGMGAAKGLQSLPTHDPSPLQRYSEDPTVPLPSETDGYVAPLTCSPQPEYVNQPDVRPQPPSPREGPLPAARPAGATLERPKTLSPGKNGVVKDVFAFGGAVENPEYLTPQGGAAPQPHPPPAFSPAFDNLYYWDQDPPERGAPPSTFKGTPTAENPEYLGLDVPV
Data set [7] is described as follows: Metabolic stability in mouse liver microsomes without cofactor NADPH. As to conditions: 3 μM test compound, mouse liver microsomes, without NADPH, 50 min, 37° C., LC-MS/MS. It counts as in vitro ADME. An excerpt: There are two major groups of enzyme reactions catalyzed by drug metabolizing enzymes, the so called Phase I and Phase II reactions. The basic processes in phase I reactions are oxidation, reduction and/or hydrolysis mostly catalyzed by the cytochrome P450 (CYP) family of enzymes.
The following procedures describe the determination of the in vitro Phase I metabolic stability of test compounds using liver microsomes by measuring compound depletion over time. Test compound at the concentration of 3 μM was incubated with the liver microsomes from the mouse species and the experiment was performed without NADPH. The depletion of the test compounds was measured over time up to 50 minutes at 37° C. by LC-MS/MS. Different compounds were tested under these conditions for microsomal stability (see Table 5).

For data set [8], the target named is T1, HER2 INS YVMA (Homo sapiens, UniProt P04626, INS775YVMA).
T1 construct: purchased DPF
In words: Lance Kinase Activity Assay, HER2 INS YVMA (Her2 Exon 20 INSYVMA Lance). In kind it is biochemical. As to conditions: biochemical Lance assay. The method, boiled down:
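IC50 was fitted to sigmoidal curves of TR-FRET signal (665 and 615 nm emission after 340 nm excitation) from an Eu anti-phospho antibody binding the phosphorylated ULight peptide. The ATP-started reaction ran 1 h at RT and was then quenched with 10 mM EDTA plus antibody for a further 1 h. Compounds were tested as 8-point, 3-fold dilutions.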

A word on the IC50: it is the concentration at which inhibition is half-maximal.

Sequence of EGFR wt (P00533 25-1210): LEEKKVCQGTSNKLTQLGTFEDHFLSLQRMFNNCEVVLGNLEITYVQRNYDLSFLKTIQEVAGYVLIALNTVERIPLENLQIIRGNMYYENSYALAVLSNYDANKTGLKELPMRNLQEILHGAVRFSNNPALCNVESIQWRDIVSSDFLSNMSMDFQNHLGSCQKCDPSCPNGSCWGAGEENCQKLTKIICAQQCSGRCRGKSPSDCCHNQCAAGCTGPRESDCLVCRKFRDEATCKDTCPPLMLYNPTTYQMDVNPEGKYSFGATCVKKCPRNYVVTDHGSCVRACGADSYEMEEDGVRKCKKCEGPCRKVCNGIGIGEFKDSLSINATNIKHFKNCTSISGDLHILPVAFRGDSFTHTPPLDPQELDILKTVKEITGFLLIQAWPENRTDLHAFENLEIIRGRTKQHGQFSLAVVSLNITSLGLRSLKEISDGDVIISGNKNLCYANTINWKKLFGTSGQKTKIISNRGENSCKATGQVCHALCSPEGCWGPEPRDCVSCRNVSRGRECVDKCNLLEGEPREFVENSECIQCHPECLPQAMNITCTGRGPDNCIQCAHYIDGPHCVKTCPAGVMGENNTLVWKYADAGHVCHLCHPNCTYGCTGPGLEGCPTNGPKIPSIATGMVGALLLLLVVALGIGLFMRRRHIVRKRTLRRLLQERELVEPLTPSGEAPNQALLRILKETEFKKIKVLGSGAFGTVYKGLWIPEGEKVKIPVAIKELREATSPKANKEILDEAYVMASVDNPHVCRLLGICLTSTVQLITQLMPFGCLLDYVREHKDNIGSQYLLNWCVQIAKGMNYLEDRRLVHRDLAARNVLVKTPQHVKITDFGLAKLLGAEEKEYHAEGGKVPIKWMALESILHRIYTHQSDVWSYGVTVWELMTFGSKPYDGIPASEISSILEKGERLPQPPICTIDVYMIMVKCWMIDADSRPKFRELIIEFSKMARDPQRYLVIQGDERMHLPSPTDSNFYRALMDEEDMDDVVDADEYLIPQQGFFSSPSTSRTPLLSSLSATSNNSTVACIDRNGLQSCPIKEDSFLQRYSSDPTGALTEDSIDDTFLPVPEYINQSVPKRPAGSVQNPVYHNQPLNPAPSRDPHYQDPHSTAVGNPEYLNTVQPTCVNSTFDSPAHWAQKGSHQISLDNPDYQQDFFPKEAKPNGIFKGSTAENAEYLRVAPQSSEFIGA
Sequence of EGFR T790ML858R (P00533 25-1210 T790M/L858R): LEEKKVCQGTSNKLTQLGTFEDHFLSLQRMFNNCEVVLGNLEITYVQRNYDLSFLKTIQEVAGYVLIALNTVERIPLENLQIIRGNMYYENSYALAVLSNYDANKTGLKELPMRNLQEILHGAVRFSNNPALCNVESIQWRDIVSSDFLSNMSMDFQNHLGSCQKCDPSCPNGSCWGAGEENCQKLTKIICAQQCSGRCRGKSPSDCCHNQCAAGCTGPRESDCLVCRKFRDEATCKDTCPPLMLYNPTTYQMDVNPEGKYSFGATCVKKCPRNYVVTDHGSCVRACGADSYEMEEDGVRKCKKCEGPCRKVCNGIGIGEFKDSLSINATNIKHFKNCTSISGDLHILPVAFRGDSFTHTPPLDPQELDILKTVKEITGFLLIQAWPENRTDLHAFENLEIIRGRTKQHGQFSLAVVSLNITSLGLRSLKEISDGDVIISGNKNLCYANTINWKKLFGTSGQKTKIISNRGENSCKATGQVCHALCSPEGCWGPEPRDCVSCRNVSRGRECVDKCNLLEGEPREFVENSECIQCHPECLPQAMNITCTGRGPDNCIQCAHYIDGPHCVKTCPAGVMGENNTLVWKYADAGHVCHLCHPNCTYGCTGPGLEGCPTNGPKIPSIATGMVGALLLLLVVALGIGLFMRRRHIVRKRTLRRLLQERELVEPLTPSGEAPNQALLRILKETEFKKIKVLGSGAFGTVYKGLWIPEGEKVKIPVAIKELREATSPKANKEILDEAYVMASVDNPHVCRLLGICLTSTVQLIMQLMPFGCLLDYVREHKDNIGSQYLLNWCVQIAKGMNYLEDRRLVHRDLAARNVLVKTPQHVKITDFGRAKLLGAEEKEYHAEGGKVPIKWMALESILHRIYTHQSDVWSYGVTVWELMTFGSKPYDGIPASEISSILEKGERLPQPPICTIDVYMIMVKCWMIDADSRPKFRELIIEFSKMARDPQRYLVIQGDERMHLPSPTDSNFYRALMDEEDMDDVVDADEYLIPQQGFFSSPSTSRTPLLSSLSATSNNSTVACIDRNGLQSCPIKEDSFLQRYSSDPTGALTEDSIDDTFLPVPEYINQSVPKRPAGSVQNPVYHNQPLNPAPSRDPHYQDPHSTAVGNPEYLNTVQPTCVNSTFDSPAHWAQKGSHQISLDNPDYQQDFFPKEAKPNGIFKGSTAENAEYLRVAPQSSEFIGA
Sequence of EGFR Exon 20 INSNPH Ba/F3 (P00533 with tags, fused parts or gaps DUP771-773): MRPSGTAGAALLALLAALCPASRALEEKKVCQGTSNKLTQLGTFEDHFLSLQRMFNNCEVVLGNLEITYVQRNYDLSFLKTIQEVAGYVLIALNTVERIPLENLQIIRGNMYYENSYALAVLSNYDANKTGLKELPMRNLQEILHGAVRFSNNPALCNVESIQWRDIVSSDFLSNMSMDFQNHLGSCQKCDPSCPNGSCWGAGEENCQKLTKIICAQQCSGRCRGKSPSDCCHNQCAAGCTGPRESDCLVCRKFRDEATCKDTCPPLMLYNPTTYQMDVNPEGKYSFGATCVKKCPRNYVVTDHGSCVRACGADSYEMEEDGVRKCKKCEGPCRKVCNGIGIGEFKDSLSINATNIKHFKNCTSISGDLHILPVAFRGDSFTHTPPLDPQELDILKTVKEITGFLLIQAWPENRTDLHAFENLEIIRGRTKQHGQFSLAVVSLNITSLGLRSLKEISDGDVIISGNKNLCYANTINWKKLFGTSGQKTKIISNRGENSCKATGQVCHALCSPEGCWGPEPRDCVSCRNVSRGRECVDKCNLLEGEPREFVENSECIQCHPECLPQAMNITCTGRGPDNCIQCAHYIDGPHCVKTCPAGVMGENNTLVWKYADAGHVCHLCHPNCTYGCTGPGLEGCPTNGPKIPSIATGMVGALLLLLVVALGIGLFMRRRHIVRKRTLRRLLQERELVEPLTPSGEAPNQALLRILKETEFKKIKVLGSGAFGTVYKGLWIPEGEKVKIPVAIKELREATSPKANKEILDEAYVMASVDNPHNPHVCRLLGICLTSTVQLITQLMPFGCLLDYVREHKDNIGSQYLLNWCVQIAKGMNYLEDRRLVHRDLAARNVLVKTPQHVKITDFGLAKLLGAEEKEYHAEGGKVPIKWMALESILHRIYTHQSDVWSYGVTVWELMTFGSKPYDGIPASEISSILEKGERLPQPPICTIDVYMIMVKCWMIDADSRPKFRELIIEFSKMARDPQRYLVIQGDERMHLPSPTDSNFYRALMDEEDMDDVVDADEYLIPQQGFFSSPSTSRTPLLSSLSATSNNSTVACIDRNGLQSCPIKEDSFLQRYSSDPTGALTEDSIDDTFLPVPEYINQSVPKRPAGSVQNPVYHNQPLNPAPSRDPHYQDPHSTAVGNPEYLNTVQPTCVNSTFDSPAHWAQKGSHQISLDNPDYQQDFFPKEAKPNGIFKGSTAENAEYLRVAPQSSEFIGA

As to `C=CC(=O)Nc1cc(-c2c(-c3cnc(N4CCOCC4)nc3)[nH]c3nccc(Cl)c23)ccc1C` [Example 36, N-(5-(4-chloro-2-(2-morpholinopyrimidin-5-yl)-1H-pyrrolo[2,3-b]pyridin-3-yl)-2-methylphenyl)acrylamide], the IC50 is not above 100 nM in data set [1]; not above 100 nM in data set [2]; 1000 to 100000 nM in data set [3]; 100 to 500 nM in data set [4]; 500 to 1000 nM in data set [8]. Besides, the GI50 in data set [5] and in data set [6] was 1000 to 10000 nM throughout. In addition, the “Stability in presence of mouse liver microsomes without cofactor NADPH [% remaining after 50 min]” value in data set [7] was more than 99 % remaining after 50 min.

Turning to `C=CC(=O)Nc1cc(-c2c(-c3ccc(N4CCN(C(C)C)CC4)cc3)[nH]c3ncc(C(=O)OC(C)C)cc23)ccc1C` [Example 176, isopropyl 3-(3-acrylamido-4-methylphenyl)-2-(4-(4-isopropylpiperazin-1-yl)phenyl)-1H-pyrrolo[2,3-b]pyridine-5-carboxylate], the IC50 in data set [1] was not above 100 nM; in data set [2], not above 100 nM; in data set [3], 1000 to 100000 nM; in data set [4], 100 to 500 nM; in data set [8], not above 100 nM. The GI50 in data set [5] and in data set [6] was 100 to 500 nM throughout. In addition, the “Stability in presence of mouse liver microsomes without cofactor NADPH [% remaining after 50 min]” value in data set [7] was more than 99 % remaining after 50 min.

As for `C=CC(=O)N1CCc2ccc(-c3c(-c4ccc(OCCCN(C)C)cc4)[nH]c4nccc(Cl)c34)cc21` [Example 71, 1-(6-(4-chloro-2-(4-(3-(dimethylamino)propoxy)phenyl)-1H-pyrrolo[2,3-b]pyridin-3-yl)indolin-1-yl)prop-2-en-1-one], the IC50 in data set [1] is not above 100 nM; in data set [2] it was not above 100 nM; in data set [3], 500 to 1000 nM; in data set [4], 100 to 500 nM; in data set [8], not above 100 nM. The figures for the GI50 in data set [5] and in data set [6] were 500 to 1000 nM and 100 to 500 nM, respectively. Also, in data set [7], the “Stability in presence of mouse liver microsomes without cofactor NADPH [% remaining after 50 min]” value is on record as more than 99 % remaining after 50 min.

Consider `C=CC(=O)N1CCc2ccc(-c3c(-c4cccc(CN5CCN(C)CC5)c4)[nH]c4nccc(Cl)c34)cc21` [Example 69, 1-(6-(4-chloro-2-(3-((4-methylpiperazin-1-yl)methyl)phenyl)-1H-pyrrolo[2,3-b]pyridin-3-yl)indolin-1-yl)prop-2-en-1-one], for which the half-maximal inhibitory concentration (IC50) was not above 100 nM in data set [1]; not above 100 nM in data set [2]; 500 to 1000 nM in data set [3]; not above 100 nM in data set [4]; not above 100 nM in data set [8]. Further, the GI50 in data set [5] and in data set [6] was 100 to 500 nM throughout. Also, in data set [7], the “Stability in presence of mouse liver microsomes without cofactor NADPH [% remaining after 50 min]” value is given as 98 % remaining after 50 min.

`C=CC(=O)Nc1cc(-c2c(-c3ccc(C4CCN(C)CC4)cc3)[nH]c3nccc(OCC)c23)ccc1C` [Example 147, 2,2,2-trifluoroacetate]: the IC50 in data set [1], in data set [2], in data set [4] and in data set [8] was not above 100 nM in each case. In addition, the GI50 in data set [5] and in data set [6] was 500 to 1000 nM in each case. For the same compound, the “Stability in presence of mouse liver microsomes without cofactor NADPH [% remaining after 50 min]” value in data set [7] was 94 % remaining after 50 min.

With `C=CC(=O)Nc1cc(-c2c(-c3cccc(OCCCN(C)C)c3)[nH]c3nccc(Cl)c23)ccc1C` [Example 20, N-(5-(4-chloro-2-(3-(3-(dimethylamino)propoxy)phenyl)-1H-pyrrolo[2,3-b]pyridin-3-yl)-2-methylphenyl)acrylamide], the half-inhibitory concentration (IC50) in data set [1], in data set [2], in data set [4] and in data set [8] was not above 100 nM in each case. Also, the GI50 in data set [5] and in data set [6] was 500 to 1000 nM throughout. For the same compound, the “Stability in presence of mouse liver microsomes without cofactor NADPH [% remaining after 50 min]” value in data set [7] is more than 99 % remaining after 50 min.

The values above are taken from patent US20220370440A1 (Lead Discovery Center GmbH, priority 2018, published 2022).
